# Measurements taken from US20160177395A1, “BIOMARKERS FOR THE PREDICTION OF RENAL INJURY” (priority 2007, published 2016).
# Values joined by “and” are separate entries in the source; they are usually repeats but may differ in a detail not shown here. Equal values may be shown once.
# Legend:
# rat kidney samples = experiment: Random-Forest classifiers applied to un-labeled samples of T1, T2, T3 and control (Table 30); conditions: for Average 'Toxic' (%): average of the two classifiers
# Procedure: To validate the optimal signature for classification of renal toxicity of a compound after five days of application a test of the signatory polynucleotide/gene expression in rat kidney samples consisting of tissues from rats exposed to three drug compounds and a single control group was carried out (Teva Pharmaceutical Industries, IL).
# The two optimal classifiers (signatures described in Tables 26 and 27) were applied to the qRT-PCR reads of the un-labeled samples and their calls was used to assign a level of toxicity to each group and, eventually, each compound.
# The classifiers described in Tables 26 and 27, were used for testing the un-labeled samples. Both classifiers were applied to the measurements of each sample, used the 30% bound from above, and the number of samples pass that bound in each group were summarized.
# [1] = system: kidney tissues of treated or untreated rats; experiment: Real-time qRT-PCR of signature amplicons, validation stage, labeled and un-labeled samples (Table 23); conditions: for H31883_DB71_seg13 normalized qRT-PCR result / MUSCYCG1R_DB81_seg19-20 normalized qRT-PCR result / W41270_DB81_seg11 normalized qRT-PCR result: un-labeled sample, one line per animal; for AI045075_DB71_seg6 normalized qRT-PCR expression (Interferon stimulated exonuclease 20 (ISG20) transcript) / H31883_DB71_seg13 normalized qRT-PCR expression (Cyclin-G1 (CCNG1) transcript) / MUSCYCG1R_DB81_seg19-20 normalized qRT-PCR expression / W41270_DB81_seg11 normalized qRT-PCR expression (tumor necrosis factor receptor superfamily, member 12a transcript) / W64472_DB81_seg2 normalized qRT-PCR expression (Interferon stimulated exonuclease 20 (ISG20) transcript) / W83813_DB81_seg27 normalized qRT-PCR expression: un-labeled samples, kidney of individual male/female rats
# Summary of the method: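 Rat kidney RNA, labeled and un-labeled samples, run over seven plates; two amplicons per signature gene (wild-type and splice variant). Values normalized to housekeeping genes, then per plate and amplicon by geometric mean of ratios against a shuffled normalization plate (outliers removed), then scaled.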
# kidney = experiment: Renal histopathology of rats treated with T1, T2, T3; assay type: in vivo, rat; conditions: rats
# Procedure: Each group consisted of 6 male and 6 female rats. The additional groups consisted of 6 males and 6 female rats treated with control compound for a single day and for five days, as described in Table 24.
# T2 “no observed effect level” (NOEL, i.e., the maximal dose at which no toxic effect is visible) is 15 mg/kg.
# At autopsy, both kidneys of each animal were removed and each kidney was cross sectioned. Half of each kidney was sent to RNA extraction and analysis.
# [2] = Ds1, Day1, oral gavage, female rat kidney
# [3] = Ds1, Day1, oral gavage, male rat kidney
# [4] = Ds1, Day5, oral gavage, female rat kidney
# [5] = Ds1, Day5, oral gavage, male rat kidney
# [6] = Ds2, Day1, oral gavage, female rat kidney
# [7] = Ds2, Day1, oral gavage, male rat kidney
# [8] = Ds2, Day5, oral gavage, female rat kidney
# [9] = Ds2, Day5, oral gavage, male rat kidney
compound,measurement,setting,value
C#CCN(C)c1nc2ccc(OC(F)(F)F)cc2s1 [T1],Average 'Toxic' (%),rat kidney samples; Ds1 Day1 Female,0%
same,Average 'Toxic' (%),rat kidney samples; Ds1 Day1 Male,17%
same,Average 'Toxic' (%),rat kidney samples; Ds1 Day5 Female,50%
same,Average 'Toxic' (%),rat kidney samples; Ds1 Day5 Male,50%
same,Average 'Toxic' (%),rat kidney samples; Ds2 Day1 Female,0%
same,Average 'Toxic' (%),rat kidney samples; Ds2 Day1 Male,0%
same,Average 'Toxic' (%),rat kidney samples; Ds2 Day5 Female,66.5%
same,Average 'Toxic' (%),rat kidney samples; Ds2 Day5 Male,33%
same,Toxicity conclusion from classifier calls,"rat kidney samples; signatures of Tables 26 and 27, 30% bound",nephrotoxic agents
same,H31883_DB71_seg13 normalized qRT-PCR result,[1]; [2],0.825 and 0.917 and 1.186
same,MUSCYCG1R_DB81_seg19-20 normalized qRT-PCR result,[1]; [2],0.49 and 0.762 and 0.981
same,W41270_DB81_seg11 normalized qRT-PCR result,[1]; [2],0.752 and 0.548 and 1.047
same,H31883_DB71_seg13 normalized qRT-PCR result,[1]; [3],0.155 and 0.178 and 0.143 and 0.169 and 0.245
same,MUSCYCG1R_DB81_seg19-20 normalized qRT-PCR result,[1]; [3],0.574 and 1.13 and 0.805 and 0.4 and 1.416
same,W41270_DB81_seg11 normalized qRT-PCR result,[1]; [3],0.778 and 1.501 and 0.981 and 0.439 and 1.502
same,H31883_DB71_seg13 normalized qRT-PCR result,[1]; [4],1.511 and 1.328 and 1.593 and 0.893
same,MUSCYCG1R_DB81_seg19-20 normalized qRT-PCR result,[1]; [4],1.162 and 1.367 and 1.089 and 0.831
same,W41270_DB81_seg11 normalized qRT-PCR result,[1]; [4],0.745 and 0.945 and 0.938 and 0.606
same,H31883_DB71_seg13 normalized qRT-PCR result,[1]; [5],0.125 and 0.208 and 0.165 and 0.207 and 0.2 and 0.323
same,MUSCYCG1R_DB81_seg19-20 normalized qRT-PCR result,[1]; [5],2.031 and 0.904 and 0.937 and 0.783 and 1.364 and 0.717
same,W41270_DB81_seg11 normalized qRT-PCR result,[1]; [5],1.835 and 0.991 and 0.687 and 0.902 and 1.35 and 0.684
same,H31883_DB71_seg13 normalized qRT-PCR result,[1]; [6],0.861 and 0.549 and 0.725 and 1.045
same,MUSCYCG1R_DB81_seg19-20 normalized qRT-PCR result,[1]; [6],1.067 and 0.514 and 0.639 and 0.965
same,W41270_DB81_seg11 normalized qRT-PCR result,[1]; [6],0.898 and 0.415 and 0.502 and 1.028
same,H31883_DB71_seg13 normalized qRT-PCR result,[1]; [7],0.889 and 0.656 and 0.473
same,MUSCYCG1R_DB81_seg19-20 normalized qRT-PCR result,[1]; [7],0.932 and 0.544 and 0.541
same,W41270_DB81_seg11 normalized qRT-PCR result,[1]; [7],1.326 and 0.785 and 0.592
same,H31883_DB71_seg13 normalized qRT-PCR result,[1]; [8],1.025 and 0.454 and 1.074 and 1.674
same,MUSCYCG1R_DB81_seg19-20 normalized qRT-PCR result,[1]; [8],0.935 and 1.478 and 0.868 and 1.487
same,W41270_DB81_seg11 normalized qRT-PCR result,[1]; [8],0.989 and 1.223 and 0.652 and 1.056
same,H31883_DB71_seg13 normalized qRT-PCR result,[1]; [9],0.654 and 1.077 and 1.236 and 0.596
same,MUSCYCG1R_DB81_seg19-20 normalized qRT-PCR result,[1]; [9],0.539 and 1.161 and 1.793 and 0.73
same,W41270_DB81_seg11 normalized qRT-PCR result,[1]; [9],0.527 and 1.181 and 2.203 and 0.784
same,AI045075_DB71_seg6 normalized qRT-PCR expression (Interferon stimulated exonuclease 20 (ISG20) transcript),"[1]; dose Ds1, Day1, oral gavage",0.843 and 0.636 and 0.572
same,H31883_DB71_seg13 normalized qRT-PCR expression (Cyclin-G1 (CCNG1) transcript),"[1]; dose Ds1, Day1, oral gavage",0.913 and 0.757 and 0.615 and 0.73 and 0.524 and 0.783 and 0.912 and 0.87 and 0.957 and 0.923 and 0.706
same,MUSCYCG1R_DB81_seg19-20 normalized qRT-PCR expression,"[1]; dose Ds1, Day1, oral gavage",1.49 and 0.291 and 0.271 and 0.376 and 0.135 and 1.436 and 1.195 and 0.249 and 1.891 and 0.299 and 2.31
same,"W41270_DB81_seg11 normalized qRT-PCR expression (tumor necrosis factor receptor superfamily, member 12a transcript)","[1]; dose Ds1, Day1, oral gavage",0.66 and 0.181 and 0.396 and 0.198 and 0.231 and 0.758 and 0.646 and 0.47 and 1.082 and 0.734 and 0.566
same,W64472_DB81_seg2 normalized qRT-PCR expression (Interferon stimulated exonuclease 20 (ISG20) transcript),"[1]; dose Ds1, Day1, oral gavage",1.118 and 0.683 and 0.49
same,W83813_DB81_seg27 normalized qRT-PCR expression,"[1]; dose Ds1, Day1, oral gavage",0.216 and 0.843 and 0.926
same,AI045075_DB71_seg6 normalized qRT-PCR expression (Interferon stimulated exonuclease 20 (ISG20) transcript),"[1]; dose Ds1, Day5, oral gavage",0.692 and 0.627
same,H31883_DB71_seg13 normalized qRT-PCR expression (Cyclin-G1 (CCNG1) transcript),"[1]; dose Ds1, Day5, oral gavage",1.373 and 1.353 and 1.266 and 1.783 and 1.477 and 1.097 and 2.104 and 1.249 and 1.458 and 1.23 and 1.01 and 1.013
same,MUSCYCG1R_DB81_seg19-20 normalized qRT-PCR expression,"[1]; dose Ds1, Day5, oral gavage",1.598 and 0.183 and 0.149 and 0.214 and 3.532 and 0.296 and 3.397 and 0.186 and 1.317 and 0.189 and 0.816 and 1.499
same,"W41270_DB81_seg11 normalized qRT-PCR expression (tumor necrosis factor receptor superfamily, member 12a transcript)","[1]; dose Ds1, Day5, oral gavage",1.527 and 0.473 and 0.702 and 0.356 and 1.325 and 0.657 (2×) and 1.014 and 1.11 and 1.337 and 0.638 and 0.703
same,W64472_DB81_seg2 normalized qRT-PCR expression (Interferon stimulated exonuclease 20 (ISG20) transcript),"[1]; dose Ds1, Day5, oral gavage",0.571 and 0.528
same,W83813_DB81_seg27 normalized qRT-PCR expression,"[1]; dose Ds1, Day5, oral gavage",0.795 and 0.885
same,AI045075_DB71_seg6 normalized qRT-PCR expression (Interferon stimulated exonuclease 20 (ISG20) transcript),"[1]; dose Ds2, Day1, oral gavage",0.483 and 0.759 and 0.448 and 0.547 and 0.396
same,H31883_DB71_seg13 normalized qRT-PCR expression (Cyclin-G1 (CCNG1) transcript),"[1]; dose Ds2, Day1, oral gavage",0.517 (2×) and 0.906 and 0.849 and 0.696 and 0.611 and 0.707 and 0.867 and 1.153 and 1.19 and 0.623 and 0.798
same,MUSCYCG1R_DB81_seg19-20 normalized qRT-PCR expression,"[1]; dose Ds2, Day1, oral gavage",0.385 and 0.76 and 0.739 and 0.478 and 0.738 and 0.652 and 0.654 and 1.261 and 0.609 and 0.835 and 0.696 and 0.804
same,"W41270_DB81_seg11 normalized qRT-PCR expression (tumor necrosis factor receptor superfamily, member 12a transcript)","[1]; dose Ds2, Day1, oral gavage",0.78 and 0.755 and 0.885 and 0.462 and 0.413 and 0.762 and 0.644 and 1.034 and 1.265 and 0.653 and 0.383 and 0.472
same,W64472_DB81_seg2 normalized qRT-PCR expression (Interferon stimulated exonuclease 20 (ISG20) transcript),"[1]; dose Ds2, Day1, oral gavage",0.944 and 1.213 and 0.661 and 0.559 and 0.462
same,W83813_DB81_seg27 normalized qRT-PCR expression,"[1]; dose Ds2, Day1, oral gavage",1.186 and 0.984 and 0.34 and 0.689 and 0.56
same,AI045075_DB71_seg6 normalized qRT-PCR expression (Interferon stimulated exonuclease 20 (ISG20) transcript),"[1]; dose Ds2, Day5, oral gavage",0.797 and 0.766 and 1.01 and 0.629
same,H31883_DB71_seg13 normalized qRT-PCR expression (Cyclin-G1 (CCNG1) transcript),"[1]; dose Ds2, Day5, oral gavage",1.36 and 1.037 and 1.84 and 1.348 and 2.423 and 1.13 and 2.468 and 1.684 and 1.672 and 1.663 and 1.554 and 0.996
same,MUSCYCG1R_DB81_seg19-20 normalized qRT-PCR expression,"[1]; dose Ds2, Day5, oral gavage",0.359 and 0.871 and 0.852 and 0.761 and 1.197 and 0.631 and 1.238 and 0.528 and 1.583 and 1.018 and 0.919 and 0.756
same,"W41270_DB81_seg11 normalized qRT-PCR expression (tumor necrosis factor receptor superfamily, member 12a transcript)","[1]; dose Ds2, Day5, oral gavage",0.009 and 0.391 and 0.964 and 0.713 and 1.825 and 0.453 and 1.254 and 1.111 and 1.126 and 1.164 and 1 and 0.71
same,W64472_DB81_seg2 normalized qRT-PCR expression (Interferon stimulated exonuclease 20 (ISG20) transcript),"[1]; dose Ds2, Day5, oral gavage",0.803 and 0.863 and 0.982 and 0.554
same,W83813_DB81_seg27 normalized qRT-PCR expression,"[1]; dose Ds2, Day5, oral gavage",1.092 and 1.125 and 0.885 and 0.55
same,Time after which visible pathological damage was seen,kidney,28 days
same,Renal damage,kidney; dose and duration as in the value,"renal damage, mainly in females, after 28 days of treatment at the 30 mg/kg dose"
